According to patent publication US6803186B2, “Compositions and methods for increasing amino acid absorption in mammals” (The IAMS Company, priority 2001, dated 2004):
Square brackets hold non-standard residues; d marks the D form. Peptide text beside a SMILES is read from it. Sar = CNCC(=O)O

Biological target: T1, canine PepT1 (cPepT1) (Canis lupus familiaris, UniProt Q8WMX5)
T1 construct: endogenous in cells; host or cells: MDCK (Madin-Darby Canine Kidney) cells, whole-cell [3H]-GlySar uptake
T1 sequence (Q8WMX5 1-708): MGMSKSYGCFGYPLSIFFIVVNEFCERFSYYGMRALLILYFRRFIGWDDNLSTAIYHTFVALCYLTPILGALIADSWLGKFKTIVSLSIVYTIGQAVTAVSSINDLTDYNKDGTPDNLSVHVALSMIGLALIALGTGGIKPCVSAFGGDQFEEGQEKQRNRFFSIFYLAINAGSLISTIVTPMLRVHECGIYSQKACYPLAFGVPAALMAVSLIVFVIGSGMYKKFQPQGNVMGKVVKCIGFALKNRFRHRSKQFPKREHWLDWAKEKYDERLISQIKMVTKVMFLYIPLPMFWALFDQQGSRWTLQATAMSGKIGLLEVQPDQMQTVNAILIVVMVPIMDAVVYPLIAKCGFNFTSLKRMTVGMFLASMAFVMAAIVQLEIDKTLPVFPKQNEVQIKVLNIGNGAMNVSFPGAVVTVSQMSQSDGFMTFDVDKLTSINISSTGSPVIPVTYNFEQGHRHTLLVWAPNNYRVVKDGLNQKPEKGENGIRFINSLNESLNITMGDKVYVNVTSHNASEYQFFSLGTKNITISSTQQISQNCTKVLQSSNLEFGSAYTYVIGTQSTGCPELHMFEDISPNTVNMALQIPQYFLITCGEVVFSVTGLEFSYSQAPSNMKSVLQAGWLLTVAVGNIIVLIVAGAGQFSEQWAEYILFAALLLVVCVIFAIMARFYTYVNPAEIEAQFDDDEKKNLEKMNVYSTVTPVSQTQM
Experiment: Characterization of GlySar uptake by MDCK cells (Km, pH gradient, time course)
Assay type: cell-based
Details: for GlySar uptake in pH 6.0 buffer relative to pH 7.4 buffer: 100 μM GlySar
Experimental: Potential expression of PepT1 transport activity (H^+-dependent, dipeptide inhibitable, low-affinity dipeptide transport) by confluent MDCK cells was evaluated using whole-cell transport techniques and glycylsarcosine (GlySar) as a model dipeptide substrate. Cells were seeded at 60,000 cells/cm^2 into 24-well trays that had been coated with rat tail collagen or poly-L-lysine and cultured ([…]:5% CO2 at 37° C.) for 3 d in media consisting of Dulbecco's Modified Eagle Medium/10% fetal calf serum/1% antimicrobial antibacterial medium. Absorption (pmols/mg protein) of [^3H]-glycyl-L-sarcosine (GlySar, 6 mCi/mL, Moravek Biochemicals, Brea, Calif.) was determined using the 24-well cluster tray method and representative scintillation counting. Before transport, cells were incubated at 37° C. for 30 min in 25 mM Hepes/Tris (pH 7.5), 140 mM NaCl, 5.4 mM KCl, 1.8 mM CaCl2, 0.8 mM MgSO4, and 5 mM glucose (uptake buffer) to normalize intracellular amino acid and peptide pools. Transport was initiated by the addition of 0.25 mL of uptake buffer that contained 2.88 μm GlySar. After 30 min of uptake at 37° C., transport was terminated by rapid washing of cells with 4×2 mL 4° C. uptake buffer. Cellular protein was precipitated with 10% trichloroacetic acid and the supernatant recovered and counted to determine radioactivity (^3H) content. Cellular protein was then solubilized in 0.2 N NaOH and 0.2% SDS and quantified by the Lowry procedure, using bovine serum albumin as a standard. The amount of H^+-dependent GlySar absorbed was calculated as the difference between uptake in pH 6.0 and pH 7.5 uptake buffers. The amount of competitor substrate-inhibitable GlySar uptake was calculated as the quotient of GlySar uptake in the absence and presence of 10 mM competitor substrate (dipeptide or amino acid) multiplied by 100%.
To preliminarily characterize the kinetic parameters of peptide transport by MDCK cells, the uptake of GlySar in media that contained pH 6.0 and 0.00064, 0.0025, 0.010, 0.04, 0.160, 0.640, 2.56, or 10.2 mM of GlySar was measured (FIG. 6). […] Collectively, these characteristics of GlySar uptake are consistent with functional activity of PepT1 expressed by other species, as opposed to high-affinity, H^+-dependent uptake by PepT2 (μm Km).
Using the maximal uptake-stimulating culture parameters determined in Experiment 3, the effect of an extracellular-to-intracellular pH gradient on GlySar uptake was further evaluated to determine a pH level at which maximal GlySar uptake could be achieved, but which would replicate physiologic conditions (FIG. 10). As expected, the presence of a pH gradient stimulated (P<0.001) H^+-dependent GlySar uptake, in a quadratic (P<0.01) fashion. Uptake at pH 5.5 or 6.0 was about 2.7 times greater than that achieved at pH 7.5. […] Accordingly, the use pH 6.0 buffers for the characterization of H^+-dependent GlySar uptake was incorporated into the standard experimental conditions.
To determine the appropriate time period to measure initial (linear) rates of GlySar uptake, a by-minute time-course experiment was performed. […] GlySar uptake in pH 6.0 buffer at 3.75, 7.5, 15, 30, 60 and 120 min was about 2, 2.1, 2.25, 2.65, 2.79, and 2.62 times more (P<0.001), respectively, than uptake from pH 7.4 buffer. Because uptake was proportional to time of uptake through 1 h, future experiments were conducted using a 30-min time period.
To confirm that H^+-dependent GlySar uptake was saturable, and therefore mediated, the uptake of GlySar from pH 6.0 and 7.4 uptake buffers containing 0.025, 0.1, 0.4, 1.6, 6.4, or 25.6 mM GlySar was evaluated (FIG. 12). Uptake of GlySar was greatest (P<0.001) from the pH 6.0 buffers, at all concentrations.

With CN(CC(=O)O)C(=O)CN [GlySar, glycylsarcosine] (H-Gly-[Sar]-OH) as the compound, how does the “H+-dependent GlySar uptake at pH 5.5 or 6.0 relative to pH 7.5” value (2.88 μM GlySar, LHM 2 days (FIG. 10)) read?
Its value is “about 2.7 times”.

And the “GlySar uptake in pH 6.0 buffer relative to pH 7.4 buffer” value (3.75 min)?
The value was “about 2 times”.

What about the “GlySar uptake in pH 6.0 buffer relative to pH 7.4 buffer” value (7.5 min) of the same compound?
Its value is ~2.1 times.

And the “GlySar uptake in pH 6.0 buffer relative to pH 7.4 buffer” value (15 min)?
The value was ~2.25 times.

What about the “GlySar uptake in pH 6.0 buffer relative to pH 7.4 buffer” value (30 min) of the same compound?
Its value is ~2.65 times.

And the “GlySar uptake in pH 6.0 buffer relative to pH 7.4 buffer” value (60 min)?
The value was ~2.79 times.

What about the “GlySar uptake in pH 6.0 buffer relative to pH 7.4 buffer” value (120 min) of the same compound?
Its value is ~2.62 times.

What about the “GlySar uptake at extracellular pH 6.0 relative to pH 7.5 medium” value (cells grown on poly-L-lysine) of the same compound?
The value was 1.7 fold.

And the “GlySar uptake at extracellular pH 6.0 relative to pH 7.5 medium” value (cells plated on collagen)?
Its value is 2.3 fold.
